# Assays:
# human neutrophils = assay: C. albicans killing by human neutrophils; type: cell-based; conditions: 2 hours at 37° C., vs. medium
# Procedure: Venous blood (20 ml) from healthy volunteers was anticoagulated with heparin. Neutrophils were isolated using dextran sedimentation and Ficoll-Hypaque (Sigma Chemical Co., St. Louis, Mi., USA) centrifugation. Erythrocytes were lysed via hypotonic shock. Neutrophils represented at least 97% of the cell suspension. Cell viability, estimated by trypan blue exclusion, was >98%. Neutrophils were suspended to a final concentration in HBSS. C. albicans (1×10^6) were opsonized with human AB serum in a shaking water bath for 30 minutes at 37° C. Organisms were then incubated with neutrophils in medium or in medium with α-MSH (1-13) or α-MSH (11-13) in concentrations of 10^−15 M to 10^−4 M in a shaking water bath for 2 hours at 37° C. After incubation, the culture tubes were placed on ice to stop growth and extracellular organisms were washed twice with centrifugation at 1000×g at 4° C. A 2.5% sodium desoxycholoate solution was added to obtain a suspension of 10^6 cells/ml. Two 1/100 serial dilutions in HBSS were made to obtain a final suspension of 100 cells/ml. Aliquots of 1 ml were dispensed on blood agar plates and incubated for 48 hours at 37° C. Colony forming units (CFUs) were counted at the end of the incubation period. Experiments were run in triplicate and repeated using blood from 5 different donors.
# [1] = system: inflammation induced in the hind paw; assay: Kappa carrageenan-induced hind paw inflammation, spinal cord intact or transected; type: in vivo, BALB/c mice; conditions: for inhibition of hind paw inflammation: central administration, spinal cord intact mice
# Procedure: Because surgical dissection of trigeminal structures that innervate the ear of the mouse is very difficult, tests to learn whether descending neural pathways are essential to the anti-inflammatory activity of centrally administered α-MSH peptides were performed in mice with inflammation induced in a hind paw. In these experiments, each animal was anesthetized with pentobarbital sodium solution as above. Baseline footpad thickness of both hind paws was measured with a spring-loaded micrometer (Swiss Precision Instruments, Los Angeles, Calif.). Paw thickness was expressed in units of 10^−3 cm; average thickness of unstimulated paws was 171.5×10^−3 cm across shipments of animals. Kappa carrageenan (Sigma) dissolved in saline (0.05%, 20 μl) was injected (28 gauge allergy test syringe) into one footpad, and saline (20 μl) was injected into the other. For the analyses, the increase in thickness of the control saline-injected paw of each animal was subtracted from that of the carrageenan-injected paw, to eliminate the influence of mechanical injury and volume of the injected fluid. To be certain that mice with severed spinal cords can react to anti-inflammatory agents, prednisolone (2.5 mg/mouse (IP injection)) was administered to 10 mice with spinal transection and inflammation induced by carrageenan. Treatment with the locally acting steroid reduced swelling up to 29% (average, relative to saline controls) at 4.5 h. after carrageenan.
# However, a standardized crushing of lumbar vertebrae with a hemostat was effective in severing the cord; no deaths were caused by this treatment. […] The experiments were limited to 4.5 h to reduce problems of bowel and bladder dysfunction. Immediately after the 4.5 h measurements all mice were killed with an overdose of sodium pentobarbital.
# Because of the size of the experiments and the requirement for several shipments of animals over time, several experiments were performed, each with complete treatment and control groups drawn from the same shipment of mice. Omnibus analysis of variance techniques (Dynastat, Washington, D.C.) were used to test overall differences among group means. Tukey's protected t test was used to compare individual means. Probability values of <0.05 were considered significant.
# TNF-α = TNF-α production by activated N9 microglia; type: cell-based, murine; conditions: microglia stimulated with LPS+IFN-γ for 24 hr, micromolar concentrations
# Procedure: (§1) The N9 clone of murine microglial cells was obtained by immortalization of embryonic brain cultures with the 3RV retrovirus carrying an activated v-myconcogene. N9 cells were cultured in T-75-cm^2 culture flasks (Corning, Cambridge, Mass.) and maintained at 37° C. in a humidified incubator under 5% CO2 atmosphere in RPMI 1640 supplemented with 2 mM L-glutamine, 50 U/mL penicillin G, 50 μg/mL streptomycin sulfate (GIBCO-BBL, Paisley, UK), and 10% heat-inactivated fetal bovine serum (FBS, Hyclone Lab, Inc., Logan, Utah) until experiments were performed. Cells were used between the first and the tenth passage.
# (§2) Sub-confluent microglial cells were washed twice with phosphate-buffered saline (PBS) and incubated with trypsin 0.025% and ethylenediaminetetraacetate (EDTA) 0.02% without calcium and magnesium for 3 min. at 37° C. to detach the cells from the culture flask. Cells were then resuspended in medium and incubated in 24-well tissue-culture plates at a concentration of 2×10^5 cells/mL for 16 h in a humidified incubator (37° C., 5% CO2). Growth medium was removed and cell monolayers were stimulated with 10 ng/mL lipopolysaccharide (LPS, from Escherichia coli 055:B5, Sigma Chemical Co., St. Louis, Mo.) plus 1 U/ml, murine IFN-γ (Sigma). To test effects of melanocortin peptides, concentrations (1, 10, 25, 50 and 100 μM) of α-MSH (1-13), α-MSH (11-13), and ACTH (1-24) (Sigma) were dissolved in medium and added to wells 10 min before treatment with LPS+IFN-γ. […] Viability of cells was assessed by trypan blue exclusion for each experimental condition; it was consistently >98%. […]
# TNF-α bioactivity was measured in supernatants of cell cultures by standard cytotoxicity assay using L929 cells and recombinant human TNF-α (Sigma) as standard. […] IL-6 was measured using a commercial murine enzyme-linked immunosorbent assay (ELISA: RPN 2714, Amersham, Little Chalfont, UK).
# (§3) Effects of melanocortin peptides on cytokine and NO production were evaluated by repeated measures analysis of variance followed by Dunnet's test for specific comparisons. […]
# NO2^− = assay: Nitrite (NO) production by activated N9 microglia; type: cell-based, murine; conditions: microglia stimulated with LPS+IFN-γ for 24 hr, micromolar concentrations
# Procedure: as §1, §2
# NO is rapidly oxidized to nitrite (NO2) in culture medium, and nitrite concentration is an indicator of NO production. […] Samples were incubated at room temperature for 10 min and absorbency was measured at 540 nm with the use of a microplate reader. Nitrite concentrations were calculated using a sodium nitrite standard curve.
# as §3
sequence,measurement,setting,value
SYSMEHFRWGKPV [α-MSH (1-13)],killing of C. albicans by human neutrophils,human neutrophils,enhanced the killing
same,inhibition of hind paw inflammation,[1]; 3 h,57%
same,inhibition of hind paw inflammation,[1]; 4.5 h,29%
same,anti-inflammatory effect after spinal cord transection,[1]; centrally administered,significantly reduced the anti-inflammatory effect
same,anti-inflammatory effect after spinal cord transection,[1]; given intraperitoneally,"significant, although smaller, inhibitory effect later in the period"
same,reduction of production of TNF-α,TNF-α,43%
same,reduction of production of NO2^−,NO2^−,42%

# — patent publication US6969590B2, “Use of a polypeptide for treatment of pruritus in animals” (Zengen, Inc., priority 2001, dated 2005)
